Assay results taken from the supplement of paper PMC10307832.

Tests used:
Test in all cases: relative viability (nuclei count vs DMSO), 5 days (fraction); higher = more cells survive
[1] = compound: CC(O)(CS(=O)(=O)c1ccc(F)cc1)C(=O)Nc1ccc(C#N)c(C(F)(F)F)c1 [Bicalutamide] + Cc1cc(Nc2cc(N3CCN(C)CC3)nc(Sc3ccc(NC(=O)C4CC4)cc3)n2)n[nH]1 [Tozasertib] (partner 0.1 µM)
How it was run: (§1)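 A single step with final 0.05% Triton X-100, 1% formaldehyde and 1 ug/ml Hoechst fixed the cells and stained nuclei 5 days after treatment. Lung cancer cell lines in 1536-well plates had been treated by pin tool the day after seeding with one drug alone or a fixed anchor-drug dose plus five library-drug doses (not always all listed) in √10 steps, and nuclei were counted on 4× images. Relative viability is the ratio of nuclei in treated wells to nuclei in vehicle wells, taken as the median of duplicate plates.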

[2] = compound: C(C(=O)C(=O)O)Br [Bromopyruvate] + CS(=O)(=O)CCNCc1ccc(-c2ccc3ncnc(Nc4ccc(OCc5cccc(F)c5)c(Cl)c4)c3c2)o1 [Lapatinib] (partner 2 µM)
How it was run: as §1

[3] = compound: CC(O)(CS(=O)(=O)c1ccc(F)cc1)C(=O)Nc1ccc(C#N)c(C(F)(F)F)c1 [Bicalutamide] + Cc1nc(NC(=O)N2CCC[C@H]2C(N)=O)sc1-c1ccnc(C(C)(C)C(F)(F)F)c1 [Alpelisib] (partner 2 µM)
How it was run: as §1

[4] = compound: CC(O)(CS(=O)(=O)c1ccc(F)cc1)C(=O)Nc1ccc(C#N)c(C(F)(F)F)c1 [Bicalutamide] + O=C(c1cc(Cc2n[nH]c(=O)c3ccccc23)ccc1F)N1CCN(C(=O)C2CC2)CC1 [Olaparib] (partner 8 µM)
How it was run: as §1

Cell Line | relative viability ([1]; first compound 0.08 µM) | relative viability ([1]; first compound 0.253 µM) | relative viability ([1]; first compound 0.8 µM) | relative viability ([1]; first compound 2.53 µM) | relative viability ([2]; first compound 1 µM) | relative viability ([2]; first compound 3.162 µM) | relative viability ([2]; first compound 10 µM) | relative viability ([2]; first compound 31.62 µM) | relative viability ([2]; first compound 100 µM) | relative viability ([3]; first compound 0.08 µM) | relative viability ([3]; first compound 0.253 µM) | relative viability ([3]; first compound 0.8 µM) | relative viability ([3]; first compound 2.53 µM) | relative viability ([4]; first compound 0.08 µM) | relative viability ([4]; first compound 0.253 µM) | relative viability ([4]; first compound 0.8 µM) | relative viability ([4]; first compound 2.53 µM)
NCI-H23 | 0.371 | 0.322 | 0.375 | 0.374 | 1.05 | 1.04 | 1.16 | 1.06 | 1.04 | 0.692 | 0.693 | 0.885 | 0.557 | 0.342 | 0.3 | 0.323 | 0.341
NCI-H322M | 0.522 | 0.478 | 0.51 | 0.504 | 0.573 | 0.548 | 0.485 | 0.624 | 0.612 | 0.948 | 0.772 | 0.882 | 0.74 | 0.851 | 0.741 | 0.789 | 0.768
NCI-H358 | 0.136 | 0.108 | 0.108 | 0.105 | 0.435 | 0.449 | 0.482 | 0.483 | 0.451 | 0.808 | 0.904 | 0.936 | 0.992 | 0.664 | 0.519 | 0.706 | 0.595
NCI-H441 | 0.496 | 0.689 | 0.631 | 0.585 |  |  |  |  |  | 0.968 |  | 0.856 | 0.876 | 0.639 | 0.609 | 0.626 | 0.481
NCI-H522 | 0.552 | 0.627 | 0.597 | 0.543 |  |  |  |  |  |  |  |  |  | 0.711 | 0.599 | 0.788 | 0.693
NCI-H1299 |  |  |  |  | 0.952 | 0.991 | 0.973 | 0.961 | 0.958 | 1.11 | 1.13 | 1.08 | 1.11 | 0.993 | 0.942 | 0.974 | 0.864
NCI-H1563 |  |  |  |  | 0.88 | 1.1 | 0.902 | 0.888 | 0.938 | 0.944 | 0.95 | 0.897 | 0.779 |  |  |  | 
NCI-H1623 |  | 0.445 | 0.471 | 0.463 |  |  |  |  |  |  |  |  |  |  |  |  | 
NCI-H1648 |  | 0.496 | 0.602 | 0.358 |  |  |  |  |  |  |  |  |  |  |  | 0.775 | 0.949
NCI-H1650 | 0.501 | 0.395 | 0.341 | 0.388 | 0.765 | 0.69 | 0.75 | 0.81 | 0.815 |  |  |  |  | 0.989 | 0.759 | 0.899 | 0.723
NCI-H1703 |  |  |  |  | 1.14 | 1.35 | 1.39 | 1.15 | 1.22 | 0.321 | 0.243 | 0.332 | 0.262 | 0.431 | 0.387 | 0.391 | 0.231
NCI-H1792 |  |  |  |  | 0.949 | 0.972 | 1.06 | 0.674 | 0.835 | 0.722 | 0.656 | 0.794 | 0.665 | 0.493 | 0.365 | 0.39 | 0.257
NCI-H2342 | 0.496 | 0.564 | 0.5 | 0.456 |  |  |  |  |  |  |  |  |  | 0.524 | 0.501 | 0.491 | 0.44
SW 900 | 0.651 | 0.556 | 0.592 | 0.542 |  |  |  |  |  |  |  |  |  | 0.798 | 0.721 | 1.21 | 0.803
